Literature values as cited in patent publication US11672748B2, “Aqueous hair conditioner compositions containing solubilized anti-dandruff actives” (The Procter & Gamble Company, priority 2020, dated 2023).

Settings: in water

| Solubility in H2O (g/L) | SMILES |
| --- | --- |
| (lower than 0.1) g/L | CCCCCCCCCCCC(=O)N(C)CC(=O)OC(C)C [Isoropyl N-Lauroyl Sarcosinate] |
| Negligible (lower than 0.1) g/L | C=CC(C)CCCC(C)(C)O (centres unmarked) [Dihydro Myrcenol] |
